Experimental data published in publication PMC5216056 (Nature Communications, 2017).
Read-outs that look alike come from different tables or passages of the source.

How the values were obtained:
MT3 (ML2) = molecular target: T1, MT3 (ML2) (Mesocricetus auratus, UniProt A0ABM2YAB8); assay: CEREP panel; format: binding
T1 construct: CEREP (contract assay)
T1 sequence (A0ABM2YAB8 1-231): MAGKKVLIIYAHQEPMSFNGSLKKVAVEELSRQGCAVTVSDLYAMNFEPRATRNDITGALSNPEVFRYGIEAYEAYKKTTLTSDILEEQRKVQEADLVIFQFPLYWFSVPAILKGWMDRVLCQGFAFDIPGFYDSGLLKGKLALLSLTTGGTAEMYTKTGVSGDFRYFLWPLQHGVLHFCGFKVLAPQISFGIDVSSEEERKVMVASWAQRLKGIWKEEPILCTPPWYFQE

[1] = 1 μM
N muscle-type (h) = molecular target: T2, N muscle-type (h) (Homo sapiens, UniProt P02708+P07510+P11230+Q07001); assay: CEREP panel; format: binding; conditions: for % inhibition N muscle-type (h): 10 µM
T2 construct: CEREP (contract assay)
T2 sequence (P02708 21-457): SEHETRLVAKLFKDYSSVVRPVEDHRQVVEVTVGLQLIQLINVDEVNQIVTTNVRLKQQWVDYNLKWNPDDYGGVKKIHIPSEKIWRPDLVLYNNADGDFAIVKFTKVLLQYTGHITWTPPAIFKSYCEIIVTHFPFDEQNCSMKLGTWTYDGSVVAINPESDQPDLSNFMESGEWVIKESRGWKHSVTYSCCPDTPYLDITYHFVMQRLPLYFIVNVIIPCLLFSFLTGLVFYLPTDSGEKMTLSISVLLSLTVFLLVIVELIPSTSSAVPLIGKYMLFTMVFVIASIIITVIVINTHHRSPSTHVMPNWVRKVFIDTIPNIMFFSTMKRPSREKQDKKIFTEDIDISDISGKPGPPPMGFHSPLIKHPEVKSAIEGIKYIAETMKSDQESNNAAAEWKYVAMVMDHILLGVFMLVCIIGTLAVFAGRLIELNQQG
T2 sequence (P11230 24-501): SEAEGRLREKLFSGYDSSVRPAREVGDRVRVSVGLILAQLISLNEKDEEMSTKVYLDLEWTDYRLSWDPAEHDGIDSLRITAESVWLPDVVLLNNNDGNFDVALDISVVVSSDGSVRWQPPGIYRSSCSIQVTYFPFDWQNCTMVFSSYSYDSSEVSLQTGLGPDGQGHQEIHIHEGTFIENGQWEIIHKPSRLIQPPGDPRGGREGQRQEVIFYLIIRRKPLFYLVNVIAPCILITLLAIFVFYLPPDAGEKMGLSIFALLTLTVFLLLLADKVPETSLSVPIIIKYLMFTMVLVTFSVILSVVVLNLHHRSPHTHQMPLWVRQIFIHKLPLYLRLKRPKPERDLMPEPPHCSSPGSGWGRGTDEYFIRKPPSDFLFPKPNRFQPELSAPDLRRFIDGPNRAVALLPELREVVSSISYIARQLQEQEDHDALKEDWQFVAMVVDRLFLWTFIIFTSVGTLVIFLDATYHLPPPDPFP
T2 sequence (Q07001 22-517): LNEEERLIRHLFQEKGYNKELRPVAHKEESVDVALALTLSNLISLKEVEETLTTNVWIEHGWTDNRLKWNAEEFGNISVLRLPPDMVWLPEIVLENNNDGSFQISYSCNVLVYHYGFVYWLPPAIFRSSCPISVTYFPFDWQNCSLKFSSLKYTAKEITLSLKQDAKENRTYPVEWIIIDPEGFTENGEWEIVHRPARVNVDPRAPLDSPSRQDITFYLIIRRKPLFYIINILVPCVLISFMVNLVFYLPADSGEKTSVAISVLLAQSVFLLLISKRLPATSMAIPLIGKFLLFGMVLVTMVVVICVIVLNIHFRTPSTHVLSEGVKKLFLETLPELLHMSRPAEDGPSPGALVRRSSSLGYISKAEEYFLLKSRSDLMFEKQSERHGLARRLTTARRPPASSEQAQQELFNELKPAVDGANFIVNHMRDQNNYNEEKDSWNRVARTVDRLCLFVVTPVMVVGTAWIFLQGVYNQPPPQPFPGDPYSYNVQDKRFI
T2 sequence (P07510 23-517): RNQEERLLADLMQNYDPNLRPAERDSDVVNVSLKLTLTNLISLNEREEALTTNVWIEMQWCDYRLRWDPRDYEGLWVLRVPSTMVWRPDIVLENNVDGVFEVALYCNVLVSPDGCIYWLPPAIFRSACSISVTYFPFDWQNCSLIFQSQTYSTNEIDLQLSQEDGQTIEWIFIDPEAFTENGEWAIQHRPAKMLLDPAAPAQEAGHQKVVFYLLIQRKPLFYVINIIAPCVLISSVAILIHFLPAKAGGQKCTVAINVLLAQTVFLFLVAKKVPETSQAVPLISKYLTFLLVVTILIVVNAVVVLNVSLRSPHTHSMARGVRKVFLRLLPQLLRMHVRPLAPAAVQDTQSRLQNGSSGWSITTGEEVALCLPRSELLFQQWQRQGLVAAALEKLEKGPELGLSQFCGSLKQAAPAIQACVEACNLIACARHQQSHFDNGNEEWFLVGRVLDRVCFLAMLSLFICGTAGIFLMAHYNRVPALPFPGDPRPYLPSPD

PCP = format: binding; conditions: 10 µM
[2] = molecular target: T3, norepinephrine transporter (h) (Homo sapiens, UniProt P23975); assay: biochemical; format: binding; conditions: 10 µM
T3 construct: CEREP (contract assay)
T3 sequence (P23975 whole entry): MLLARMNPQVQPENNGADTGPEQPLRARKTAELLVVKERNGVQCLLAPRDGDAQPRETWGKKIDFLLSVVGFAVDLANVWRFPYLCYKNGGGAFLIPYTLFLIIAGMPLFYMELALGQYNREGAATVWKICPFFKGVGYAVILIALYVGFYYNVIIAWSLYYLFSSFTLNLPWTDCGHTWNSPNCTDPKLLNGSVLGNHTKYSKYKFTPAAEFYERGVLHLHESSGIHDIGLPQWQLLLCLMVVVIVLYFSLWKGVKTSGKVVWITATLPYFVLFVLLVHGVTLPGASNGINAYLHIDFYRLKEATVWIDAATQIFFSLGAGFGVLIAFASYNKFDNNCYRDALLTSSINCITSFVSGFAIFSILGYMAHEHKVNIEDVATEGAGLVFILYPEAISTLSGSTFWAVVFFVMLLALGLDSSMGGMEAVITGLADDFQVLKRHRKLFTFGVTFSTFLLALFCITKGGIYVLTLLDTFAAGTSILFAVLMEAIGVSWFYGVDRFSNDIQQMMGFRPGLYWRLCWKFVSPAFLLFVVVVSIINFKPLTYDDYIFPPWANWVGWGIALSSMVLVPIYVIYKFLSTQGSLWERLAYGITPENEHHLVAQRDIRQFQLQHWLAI

PPARgamma (h) = molecular target: T4, PPARgamma (h) (Homo sapiens, UniProt P37231); assay: CEREP panel; format: binding; conditions: 10 µM
T4 construct: CEREP (contract assay)
T4 sequence (P37231 1-505): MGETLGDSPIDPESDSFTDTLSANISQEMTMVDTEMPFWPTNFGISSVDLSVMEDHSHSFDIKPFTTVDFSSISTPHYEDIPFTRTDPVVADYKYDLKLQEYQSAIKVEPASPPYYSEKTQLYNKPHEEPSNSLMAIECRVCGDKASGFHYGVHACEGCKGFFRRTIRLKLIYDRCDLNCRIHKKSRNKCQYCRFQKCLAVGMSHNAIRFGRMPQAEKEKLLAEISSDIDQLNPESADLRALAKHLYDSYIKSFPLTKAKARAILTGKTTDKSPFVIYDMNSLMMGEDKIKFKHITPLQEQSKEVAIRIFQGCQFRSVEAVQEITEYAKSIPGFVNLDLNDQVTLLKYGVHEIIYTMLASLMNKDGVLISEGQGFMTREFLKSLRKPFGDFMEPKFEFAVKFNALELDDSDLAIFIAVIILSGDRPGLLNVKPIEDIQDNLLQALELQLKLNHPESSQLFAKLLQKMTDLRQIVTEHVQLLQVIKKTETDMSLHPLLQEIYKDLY

hGPR55 = molecular target: T5, hGPR55 (Homo sapiens, UniProt Q9Y2T6); assay: cell-based; conditions: β-arrestin recruitment
T5 construct: host or cells: CHO-K1 (PathHunter hGPR55_bgal)
T5 sequence (Q9Y2T6 whole entry): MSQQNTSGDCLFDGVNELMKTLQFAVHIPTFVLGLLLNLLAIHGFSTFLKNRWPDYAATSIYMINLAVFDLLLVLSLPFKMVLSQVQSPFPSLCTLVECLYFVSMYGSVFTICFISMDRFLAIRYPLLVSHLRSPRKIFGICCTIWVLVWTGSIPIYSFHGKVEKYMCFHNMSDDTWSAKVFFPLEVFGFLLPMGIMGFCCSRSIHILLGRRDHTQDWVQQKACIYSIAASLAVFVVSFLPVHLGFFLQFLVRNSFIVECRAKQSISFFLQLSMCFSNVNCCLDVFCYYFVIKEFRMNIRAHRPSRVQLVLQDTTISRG

[3] = 1 μM; remark: listed apart in the source
Na+ channel (site 2) = format: binding; conditions: 10 µM
[4] = i.v., mice; for C0: 1.0-2.0 mg/kg, extrapolated
[5] = system: Ca2+ channel (L, diltiazem site); assay: CEREP panel; format: binding; conditions: 10 µM
mCB1R = molecular target: T6, mCB1R (Mus musculus, UniProt P47746); assay: biochemical; format: binding; conditions: for pKi ± SEM mCB1R: mouse brain membranes
T6 construct: from tissue; host or cells: brain of male C57BL/6J mice
T6 sequence (P47746 whole entry): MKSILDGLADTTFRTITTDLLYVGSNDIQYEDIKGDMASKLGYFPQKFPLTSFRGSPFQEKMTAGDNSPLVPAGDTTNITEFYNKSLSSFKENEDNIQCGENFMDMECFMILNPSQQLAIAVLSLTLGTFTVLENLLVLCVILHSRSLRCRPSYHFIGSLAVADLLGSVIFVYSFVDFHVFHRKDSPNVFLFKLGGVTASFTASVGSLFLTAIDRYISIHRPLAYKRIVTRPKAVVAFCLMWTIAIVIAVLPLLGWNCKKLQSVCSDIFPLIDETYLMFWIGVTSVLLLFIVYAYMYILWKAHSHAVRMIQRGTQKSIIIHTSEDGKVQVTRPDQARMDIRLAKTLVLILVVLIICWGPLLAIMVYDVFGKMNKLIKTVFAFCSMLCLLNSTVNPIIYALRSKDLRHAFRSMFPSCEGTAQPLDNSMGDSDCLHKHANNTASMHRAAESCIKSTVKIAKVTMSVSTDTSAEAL

[6] = system: AEA cellular uptake in U937 cells; assay: cells; format: cell-based, human
Rat recombinant TRPM8 = molecular target: T7, Rat recombinant TRPM8 (Rattus norvegicus, UniProt Q8R455); assay: TRP channel [Ca2+]i assay; format: cell-based; conditions: read-out: TRPM8 IC50 for antagonism of icilin
T7 construct: expressed in transfected cells; host or cells: HEK293 (TRPM8-HEK-293, gift from Mario van der Stelt)
T7 sequence (Q8R455 whole entry): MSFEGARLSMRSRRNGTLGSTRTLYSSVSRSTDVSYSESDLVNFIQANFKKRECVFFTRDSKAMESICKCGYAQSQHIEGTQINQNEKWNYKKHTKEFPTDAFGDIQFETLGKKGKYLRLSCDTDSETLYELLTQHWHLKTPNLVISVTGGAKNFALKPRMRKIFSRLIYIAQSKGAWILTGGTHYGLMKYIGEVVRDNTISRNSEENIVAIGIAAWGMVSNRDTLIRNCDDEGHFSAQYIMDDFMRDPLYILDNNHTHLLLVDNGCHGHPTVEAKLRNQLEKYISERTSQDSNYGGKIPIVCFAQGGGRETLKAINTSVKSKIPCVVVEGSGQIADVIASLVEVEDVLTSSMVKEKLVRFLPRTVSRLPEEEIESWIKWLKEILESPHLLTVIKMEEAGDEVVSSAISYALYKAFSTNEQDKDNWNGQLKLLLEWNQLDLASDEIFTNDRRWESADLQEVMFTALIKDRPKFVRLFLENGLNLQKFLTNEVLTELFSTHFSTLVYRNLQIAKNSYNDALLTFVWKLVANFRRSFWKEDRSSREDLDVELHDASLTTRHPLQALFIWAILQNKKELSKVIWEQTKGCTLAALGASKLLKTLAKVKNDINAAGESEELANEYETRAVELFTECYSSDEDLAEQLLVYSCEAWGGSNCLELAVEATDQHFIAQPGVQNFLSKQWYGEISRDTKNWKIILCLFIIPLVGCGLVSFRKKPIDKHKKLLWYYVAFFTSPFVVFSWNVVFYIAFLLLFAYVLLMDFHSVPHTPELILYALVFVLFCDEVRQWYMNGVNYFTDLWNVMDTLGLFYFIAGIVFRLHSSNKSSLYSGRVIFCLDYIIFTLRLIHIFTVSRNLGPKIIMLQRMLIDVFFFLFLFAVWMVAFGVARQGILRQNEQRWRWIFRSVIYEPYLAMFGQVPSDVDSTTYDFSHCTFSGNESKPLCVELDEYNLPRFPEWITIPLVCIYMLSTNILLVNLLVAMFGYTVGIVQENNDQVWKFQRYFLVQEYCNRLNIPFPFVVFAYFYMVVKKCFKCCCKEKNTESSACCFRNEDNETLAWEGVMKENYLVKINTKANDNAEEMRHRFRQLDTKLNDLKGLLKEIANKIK

[7] = logD distribution coefficient; conditions: distribution coefficient
Human recombinant TRPV1 = molecular target: T8, Human recombinant TRPV1 (Homo sapiens, UniProt Q8NER1); assay: cell-based; format: cell-based
T8 construct: expressed in transfected cells; host or cells: HEK293 (TRPV1-HEK-293, gift from John Davis, GlaxoSmithKline)

[8] = system: AEA cellular uptake in HMC-1 cells; assay: cells; format: cell-based, human; conditions: read-out: AEA reuptake IC50 (95% CI) HMC-1 cells; FAAH-deficient cells
hCB1R [9] = molecular target: T9, hCB1R (Homo sapiens, UniProt P21554); assay: biochemical; format: biochemical; conditions: read-out: Emax ± SEM GTPγS hCB1R
T9 construct: host or cells: CHO

hCB1R [10] = molecular target: T9, hCB1R; assay: cell-based; format: cell-based; conditions: read-out: Emax ± SEM β-AR recruitment hCB1R
hCB2R = hCB2R (Homo sapiens, UniProt P34972); design: expressed in transfected cells; host or cells: Flp-In-293 (Invitrogen #R750-07), pcDNA5/FRT
hCB2R, sequence (P34972 whole entry): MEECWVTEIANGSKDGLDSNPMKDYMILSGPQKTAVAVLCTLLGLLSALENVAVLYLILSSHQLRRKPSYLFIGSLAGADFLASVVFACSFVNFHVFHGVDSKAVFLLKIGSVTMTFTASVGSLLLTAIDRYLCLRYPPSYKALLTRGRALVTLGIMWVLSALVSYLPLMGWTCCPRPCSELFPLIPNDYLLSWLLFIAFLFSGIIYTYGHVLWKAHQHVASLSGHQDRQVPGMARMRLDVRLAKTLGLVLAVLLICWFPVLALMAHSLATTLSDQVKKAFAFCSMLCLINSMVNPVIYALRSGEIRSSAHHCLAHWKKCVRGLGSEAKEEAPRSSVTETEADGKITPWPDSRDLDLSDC

SMILES: CCCn1c(C)c(C(=O)c2cccc3ccccc23)c2ccccc21 [JWH015]
- % inhibition MT3 (ML2) (MT3 (ML2); 10 µM): 49%
- CL microsomes human [1]: 41 µL/min/mg protein
- % inhibition N muscle-type (h) (N muscle-type (h)): -12%
- % inhibition PCP (PCP): -19%
- % inhibition norepinephrine transporter (h) [2]: 39%
- % inhibition PPARgamma (h) (PPARgamma (h)): 67%
- GPR55 pEC50 (± SEM) (hGPR55): < 5
- CL hepatocytes mouse [3]: 205 µL/min/mio cells
- % inhibition Na+ channel (site 2) (Na+ channel (site 2)): 50%
- AUCinf [4]: 174 ng·h/mL
- AUCinf/dose [4]: 158 kg·ng·h/mL/mg
- AUClast [4]: 163 ng·h/mL
- CL [4]: 105 mL/min/kg
- T1/2 [4]: 2.6 h
- C0 [4]: 438 ng/mL
- % inhibition Ca2+ channel (L, diltiazem site) [5]: 33%
- pKi ± SEM mCB1R (mCB1R): 5.94 ± 0.15

SMILES: COc1ccc(C(=O)c2c(C)n(CCN3CCOCC3)c3cc(I)ccc23)cc1 [AM630]
- AEA reuptake % inhibition, effect at 10 µM, U937 cells ([6]; 10 µM (values marked *)): 23%
- IC50 ([6]; read-out: AEA reuptake IC50 (95% CI) U937 cells): > 10 µM
- CL microsomes human [1]: 82 µL/min/mg protein
- IC50 (Rat recombinant TRPM8; vs icilin 0.1μM (second value in cell)): 1.9 ± 0.1 µM
- IC50 (Rat recombinant TRPM8; vs icilin […]): 4.3 ± 0.3 µM
- logD [7]: 3.82
- % inhibition N muscle-type (h) (N muscle-type (h)): 5%
- % inhibition PCP (PCP): 9%
- % inhibition norepinephrine transporter (h) [2]: 38%
- % inhibition PPARgamma (h) (PPARgamma (h)): 99%
- TRPV1 Efficacy (% ionomycin 4μM) (Human recombinant TRPV1): < 10%
- IC50 (Human recombinant TRPV1; read-out: TRPV1 IC50 for antagonism or desensitization): > 100 µM
- GPR55 pEC50 (± SEM) (hGPR55): < 5
- CL hepatocytes mouse [3]: 101 µL/min/mio cells
- AUCinf [4]: 197 ng·h/mL
- AUCinf/dose [4]: 197 kg·ng·h/mL/mg
- AUClast [4]: 177 ng·h/mL
- CL [4]: 85 mL/min/kg
- T1/2 [4]: 2.9 h
- C0 [4]: 69.8 ng/mL
- % inhibition Ca2+ channel (L, diltiazem site) [5]: -11%
- pKi ± SEM mCB1R (mCB1R): 5.6 ± 0.298
- IC50 [8]: > 10 µM

SMILES: CCCCCCC(C)(C)c1ccc([C@@H]2C[C@H](O)CC[C@H]2CCCO)c(O)c1 [CP55940]
- inhibition at 10 µM (MT3 (ML2); read-out: % inhibition MT3 (ML2)): 22%
- inhibition at 10 µM (N muscle-type (h)): -4%
- % inhibition PCP (PCP): 1%
- inhibition at 10 µM ([2]; read-out: % inhibition norepinephrine transporter (h)): 89%
- inhibition at 10 µM (PPARgamma (h); read-out: % inhibition PPARgamma (h)): 85%
- Emax (hCB1R [9]): 92 ± 5%
- EC50 (hGPR55; read-out: GPR55 pEC50 (± SEM) (converted)): > 10 µM
- % inhibition Na+ channel (site 2) (Na+ channel (site 2)): 71%
- % inhibition Ca2+ channel (L, diltiazem site) [5]: -7%
- Emax (hCB1R [10]): 94 ± 2%
- GIRK-GTPγS bias factor (BF) (hCB2R): 1.00
- GIRK-GTPγS ΔΔlogR (hCB2R): 0 ± 0.34
- GIRK-cAMP bias factor (BF) (hCB2R): 1.00
- GIRK-cAMP ΔΔlogR (hCB2R): 0 ± 0.12
- GTPγS-cAMP bias factor (BF) (hCB2R): 1.00
- GTPγS-cAMP ΔΔlogR (hCB2R): 0 ± 0.34
- LogR GIRK (hCB2R): 7.863
- RE GIRK (hCB2R): 1.00
- RE GTPγS (hCB2R): 1.00
- RE cAMP (hCB2R): 1.00
- RE pERK (hCB2R): 1.00
- RE β-AR (hCB2R): 1.00
- pERK-GIRK bias factor (BF) (hCB2R): 1.00
- pERK-GIRK ΔΔlogR (hCB2R): 0 ± 0.25
- pERK-GTPγS bias factor (BF) (hCB2R): 1.00
- pERK-GTPγS ΔΔlogR (hCB2R): 0 ± 0.41
- pERK-cAMP bias factor (BF) (hCB2R): 1.00
- pERK-cAMP ΔΔlogR (hCB2R): 0 ± 0.26
- ΔLogR GIRK (hCB2R): 0 ± 0.07
- ΔLogR GTPγS (hCB2R): 0 ± 0.33
- ΔLogR cAMP (hCB2R): 0 ± 0.09
- ΔLogR pERK (hCB2R): 0 ± 0.24
- ΔLogR β-AR (hCB2R): 0 ± 0.07
- β-AR-GIRK bias factor (BF) (hCB2R): 1.00
- β-AR-GIRK ΔΔlogR (hCB2R): 0 ± 0.1
- β-AR-GTPγS bias factor (BF) (hCB2R): 1.00
- β-AR-GTPγS ΔΔlogR (hCB2R): 0 ± 0.34
- β-AR-cAMP bias factor (BF) (hCB2R): 1.00
- β-AR-cAMP ΔΔlogR (hCB2R): 0 ± 0.12
- β-AR-pERK bias factor (BF) (hCB2R): 1.00
- β-AR-pERK ΔΔlogR (hCB2R): 0 ± 0.25
- Ki (mCB1R): 0.00158 µM
